Measured values: US20130064812A1, “COMBINATION THERAPIES FOR HEMATOLOGIC MALIGNANCIES” (Gilead Calistoga LLC, priority 2011, published 2013)

Assays:
[1] = system: CLL cells with purified B-cells; assay: IgM production by B-cells cultured with treated CLL cells (ELISA); assay type: cell-based, human; conditions: 0.5 μM lenalidomide and/or 10 μM compound, 48 hours, N=6; p<0.0001
Protocol: Quantization of IgM was determined. Briefly, lenalidomide-treated or vehicle control-treated CLL cells, were irradiated and placed in culture with target, purified B-cells, in the absence or presence of PWM ([…]).
Given the importance of the CD40-CD154 axis for lenalidomide-treated CLL cells to promote normal B-cells to produce immunoglobulin, the compound of formula I was assessed to see whether it could prevent this occurrence. […] CLL cells were irradiated (20 Gy) and placed in culture with purified B-cells, in the absence or presence of 5 μg/mL PWM. Quantification of IgM was determined by ELISA analysis.

[2] = system: relapsed or refractory indolent B-cell NHL and CLL; assay: Clinical study, combination with rituximab or bendamustine, 20 patients (Example 39); conditions: human, in vivo
Protocol: 20 patients were enrolled, including 12 with iNHL and 8 with CLL. All patients received the compound of formula I, either 100 mg orally twice per day (BID) or 150 mg orally twice per day (BID) for as long as the patient was benefiting. Patients also received either rituximab 375 mg/m^2 administered weekly for 8 weeks, starting on Day 1 of Cycle 1, or bendamustine 90 mg/m^2 administered on Days 1 and 2 of each cycle for 6 cycles. Tumor response was evaluated according to standard criteria.

mTOR = mTOR (Homo sapiens, UniProt P42345); assay: InvitroGen Adapta kinase assay, mTOR; assay type: biochemical
[3] = system: previously treated B-cell malignancies (iNHL, CLL); assay: Clinical study, combination with rituximab or bendamustine, 49 patients (Example 42); conditions: human, in vivo
Source text: 49 patients were enrolled in the study, including 27 with iNHL and 22 with CLL. At the baseline, patients had adverse prognostic characteristics, including older age, bulky adenopathy, and refractory disease. All patients had received ≧1 prior treatment regimen and some had received as many 9 prior regimens. Prior treatment included rituximab, alkylating agents and/or fludarabine; the majority of patients with iNHL had been treated with prior anthracycline-containing therapy. Follow-up was early in many patients, with durations of therapy ranging from 1 to 12 cycles.
All patients received the compound of formula I, either 100 mg orally twice per day (BID) or 150 mg orally twice per day (BID) for as long as the patient was benefiting. Patients also received either rituximab 375 mg/m^2 administered weekly for 8 weeks, starting on Day 1 of Cycle 1, or bendamustine 90 mg/m^2 administered on Days 1 and 2 of each cycle for 6 cycles. Tumor response was evaluated according to standard criteria.

[4] = system: CLL cells co-cultured with MSCs; assay: CLL cells co-cultured with marrow stromal cells (MSC), DiOC6/PI viability; conditions: compound 5 μM; bendamustine, fludarabine, dexamethasone 10 μM
Source text: The viable cell population was characterized by bright DiOC6 staining and PI exclusion, and was gated in the lower right corner of each contour plot.
Viabilities of drug-treated samples were normalized to the viabilities of control samples at the respective timepoints (100%).

[5] = system: CLL cells on stromaNKTert; assay: Calcein-based adhesion assay of CLL cells on stroma; assay type: cell-based, human
Protocol: a confluent monolayer of CD154+L or StromaNKTert cells was generated by plating 1×10^4 cells/well in 96-well plates for 24 hours. Single cell suspensions of CLL cells at 0.5×10^6 cells/ml were then labeled with 1 μg/mL Calcein-AM (Invitrogen) for 1 hour. Cells were then spun down and treated with compound or vehicle for 1 to 24 hours. Non-adherent cells were washed off by aspiration. CLL cell adhesion was quantified by fluorimetry (Ex/Em=485/520 nm), and visualized directly using the Nikon TE2000 inverted live-cell imaging system.

DLBCL cell lines = assay: pAKT in DLBCL cell lines; assay type: cell-based
[6] = system: CD19+ cells from CLL patients; assay: mRNA expression in CD19+ CLL cells (RT-PCR); assay type: cell-based, human; conditions: 0.5 μM lenalidomide and/or 10 μM compound, 48 hours
Protocol: RNA was extracted using TRIzol reagent (Invitrogen) and cDNA was prepared using a SuperScript First-Strand Synthesis System (Invitrogen). Real-Time PCR was performed using pre-designed TaqMan® Gene Expression Assays and ABI Prism 7700 sequence detection system (Applied Biosystems, Foster City, Calif.).
RNA was extracted and converted to cDNA and RT-PCR analysis was done to determine quantities of CD40, CD86 and CD154 mRNA.
Lastly, lenalidomide treatment of CLL cells in culture was tested to determine whether it could promote tumor cell production of vascular endothelial growth factor (VEGF) and basic fibroblast growth factor (b-FGF). […] RNA was extracted and converted to cDNA and RT-PCR analysis was done to determine quantities of bFGF.
RNA was extracted and converted to cDNA and RT-PCR analysis was done to determine quantities of VEGF

INA-6 cells = assay: Cleavage of caspases and PARP in INA-6 cells (western blot); assay type: cell-based, human; conditions: INA-6, 0-5 μM, 120 h
Source text: Whole-cell lysates were subjected to sodium dodecyl sulfate-polyacrylamide gel electrophoresis (SDS-PAGE) separation, transferred to Pure Nitrocellulose membranes (Bio-Rad Laboratories, Hercules, Calif.), and immunoblotted with anti-AKT, phospho(p)-AKT (Ser473, Thr 308), ERK1/2, P-ERK1/2, P-PDK1, STAT, P-STAT, P-FKRHL, P-70S6K, LC3, and PI3K/p110α Abs (Cell Signaling Danvers, Mass.); anti-p110β, PI3K/p110δ, Glyceraldehyde 3-phosphate dehydrogenase (GAPDH), α-tubulin, and actin Abs (Santa Cruz Biotechnology, CA); and anti-p110γ Ab (Alexis, San Diego, Calif.): and anti-LC3 Ab (Abgent, San Diego, Calif.).
Total cell lysates were subjected to immunoblotting using anti-caspase-3, -8, -9, PARP, and α-tubulin Abs. FL indicates full-length protein, and CL indicates cleaved protein.

PI3K-δ = assay: PI3K ELISA assay on CLL cell lysates with lenalidomide; assay type: cell-based, human; conditions: 0.5 μM lenalidomide; 1 or 10 μM compound added to lysate; N=9
Protocol: PI3K assay was preformed on whole cell lysates from CLL cells. The ELISA assay was performed according to the manufacture's instructions (Echelon Biosciences, Salt Lake City, Utah).
To first confirm the specificity of PI3-kinase activation, the direct increase in the enzymatic activity of PI3K following treatment with lenalidomide was determined. […] Results were calculated relative to μg of protein. Signaling with lenalidomide through the PI3K pathway can occur through four catalytic isoforms: p110α, p110β, p110γ, and p110δ.

Structure (SMILES): CC[C@H](Nc1ncnc2[nH]cnc12)c1nc2cccc(F)c2c(=O)n1-c1ccccc1 [Compound I, 5-fluoro-3-phenyl-2-[1-(9H-purin-6-ylamino)-propyl]-3H-quinazolin-4-one]
- production of IgM [1]: completely prevent production of IgM
- dose-limiting toxicities [2]: No dose-limiting toxicities related to the compound of formula I were observed
- IC50 (mTOR): > 1000 nM
- dose-limiting toxicities [3]: No dose-limiting toxicities related to the compound of formula I were observed
- CLL cell death / survival in co-culture with MSC [4]: sensitized CLL cells to the cytotoxic agents
- CLL cell adherence to stroma at one hour [5]: reduced adherence of CLL cells was detectable
- CLL cell adherence to stroma at 24 hours ([5]; 10 μM): exhibited less adherent at 24 hours
- pAKT levels in DLBCL cell lines (DLBCL cell lines): reduces pAKT levels in several DLBCL cell lines
- VEGF transcription ([6]; N=13): reversible by treatment with the compound of formula I
- b-FGF transcription ([6]; N=15): prevented this up-regulation
- mRNA of CD40, CD86, CD154 and CD80 ([6]; N=15, p<0.009): prevent the increase in mRNA of CD40, CD86, CD154 and CD80 promoted by lenalidomide
- cleavage of caspases and PARP (INA-6 cells): Significantly increased cleavage of caspase-8, caspase-9, caspase-3, and PARP
- PI3K enzymatic activity after lenalidomide (PI3K-δ): prevent the increase in PI3K enzymatic activity
